Experimental data from publication PMC3759295 (Toxicology letters, 2013).

Assays:
[1] = test system: CYP1A1 mRNA in primary human hepatocytes; test: CYP1A1 mRNA expression in primary human hepatocytes; format: cell-based; conditions: four different primary human hepatocytes cultures
[2] = test system: CYP1A1 mRNA; test: as above; format: cell-based; conditions: human
[3] = test system: CYP1A1 mRNA in HepG2 cells; test: CYP1A1 mRNA expression in HepG2 cells; conditions: HepG2, 50 µM, 24 h
[4] = test system: CYP1A1 mRNA in LS174T cells; test: CYP1A1 mRNA expression in LS174T cells; conditions: 50 µM, 24 h
[5] = test system: CYP1A1 protein in primary human hepatocytes; test: CYP1A1 protein in primary human hepatocytes; conditions: four different primary human hepatocytes cultures
[6] = molecular target: T1, AhR (Homo sapiens, UniProt P35869); test: Gene reporter assay, transcriptional activity of AhR in AZ-AHR reporter cells; conditions: 10 µM and 50 µM, 24 h
T1 sequence (P35869 11-848): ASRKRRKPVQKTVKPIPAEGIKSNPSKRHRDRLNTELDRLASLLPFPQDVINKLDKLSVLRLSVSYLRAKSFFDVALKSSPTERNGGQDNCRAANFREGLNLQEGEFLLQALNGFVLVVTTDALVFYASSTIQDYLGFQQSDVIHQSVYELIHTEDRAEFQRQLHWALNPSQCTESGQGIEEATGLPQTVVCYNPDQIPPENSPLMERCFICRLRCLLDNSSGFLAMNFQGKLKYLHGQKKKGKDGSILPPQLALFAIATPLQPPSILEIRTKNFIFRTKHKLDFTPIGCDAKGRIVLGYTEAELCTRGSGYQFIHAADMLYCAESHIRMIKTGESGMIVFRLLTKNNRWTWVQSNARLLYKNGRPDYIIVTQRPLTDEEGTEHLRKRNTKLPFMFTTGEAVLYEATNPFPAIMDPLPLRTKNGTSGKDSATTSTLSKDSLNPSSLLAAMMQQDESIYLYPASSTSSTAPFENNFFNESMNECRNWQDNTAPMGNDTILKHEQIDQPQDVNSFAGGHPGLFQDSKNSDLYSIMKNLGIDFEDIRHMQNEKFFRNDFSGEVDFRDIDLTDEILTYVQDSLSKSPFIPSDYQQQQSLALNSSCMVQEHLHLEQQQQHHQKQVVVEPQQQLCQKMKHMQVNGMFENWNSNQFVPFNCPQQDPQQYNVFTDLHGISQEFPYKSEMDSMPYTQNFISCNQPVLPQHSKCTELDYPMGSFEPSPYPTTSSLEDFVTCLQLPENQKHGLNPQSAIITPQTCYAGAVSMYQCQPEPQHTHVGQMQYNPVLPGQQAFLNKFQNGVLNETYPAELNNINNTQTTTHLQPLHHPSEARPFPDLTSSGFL

[7] = molecular target: T2, AhR (Cavia porcellus, UniProt Q6J287); conditions: any tested concentration, 2 nM [3H]TCDD
T2 sequence (Q6J287 1-846): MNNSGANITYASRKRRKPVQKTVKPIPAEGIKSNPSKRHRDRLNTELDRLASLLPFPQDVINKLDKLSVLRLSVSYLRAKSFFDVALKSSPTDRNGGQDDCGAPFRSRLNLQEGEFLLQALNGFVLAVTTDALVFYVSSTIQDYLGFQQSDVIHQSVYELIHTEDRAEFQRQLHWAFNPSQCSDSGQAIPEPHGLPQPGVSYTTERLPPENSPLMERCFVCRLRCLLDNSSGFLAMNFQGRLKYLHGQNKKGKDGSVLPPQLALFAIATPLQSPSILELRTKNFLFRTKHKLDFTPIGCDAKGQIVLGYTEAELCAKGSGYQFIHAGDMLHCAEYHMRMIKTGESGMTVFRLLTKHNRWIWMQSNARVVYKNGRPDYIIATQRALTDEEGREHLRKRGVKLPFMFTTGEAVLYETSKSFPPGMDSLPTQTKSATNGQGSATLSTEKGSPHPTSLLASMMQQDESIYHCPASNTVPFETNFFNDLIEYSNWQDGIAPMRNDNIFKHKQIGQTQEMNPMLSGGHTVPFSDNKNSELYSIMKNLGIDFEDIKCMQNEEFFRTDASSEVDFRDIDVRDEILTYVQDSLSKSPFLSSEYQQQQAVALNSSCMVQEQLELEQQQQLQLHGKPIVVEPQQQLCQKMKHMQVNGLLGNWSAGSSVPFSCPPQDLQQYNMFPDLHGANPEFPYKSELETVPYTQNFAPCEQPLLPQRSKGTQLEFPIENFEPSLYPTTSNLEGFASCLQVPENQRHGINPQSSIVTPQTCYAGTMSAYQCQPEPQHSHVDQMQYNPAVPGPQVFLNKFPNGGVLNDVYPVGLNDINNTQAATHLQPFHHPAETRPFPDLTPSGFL

[8] = male, primary human hepatocytes (culture LH45)
[9] = male, primary human hepatocytes (culture LH46)

## OC[C@H]1O[C@@H](Oc2cc3c(O[C@@H]4O[C@H](CO)[C@@H](O)[C@H](O)[C@H]4O)cc(O)cc3[o+]c2-c2ccc(O)c(O)c2)[C@H](O)[C@@H](O)[C@@H]1O [CYA-3, cyanidin-3,5-di-O-glucoside chloride]
[1]
  induction of CYP1A1 mRNA: Neither compound induced
[2]; primary human hepatocytes (culture LH48 as printed)
  fold induction at 24 h, 50 µM: 0.13 ± 0.03
[2]; [8]
  fold induction at 24 h, 10 µM: 0.68 ± 0.2
  fold induction at 24 h, 50 µM: 0.48 ± 0.07
[2]; [9]
  fold induction at 24 h, 10 µM: 2.21 ± 0.16
  fold induction at 24 h, 50 µM: 2.59 ± 0.09
[2]; male, primary human hepatocytes (culture LH47)
  fold induction at 24 h, 50 µM: 0.45 ± 0.03
[3]
  level of CYP1A1 mRNA: significantly increased
[4]
  level of CYP1A1 mRNA: significantly increased
[5]
  induction of CYP1A1 protein: Neither compound induced
[6]
  induction of luciferase activity: concentration-dependent induction
[7]
  displacement of radiolabelled TCDD from AhR: did not displace
